From ChEMBL document CHEMBL1123283, “Quinazoline antifolates inhibiting thymidylate synthase: variation of the amino acid” (1986)

Key:
[1] = target: Thymidylate synthase (Mus musculus) (UniProt P07607)
Description: Inverse relative potency for the inhibition of L1210 thymidylate synthase

L1210 = assay: Inhibitory dose for L1210 cells in culture. Not tested at higher concentrations because of their limited solubility; type: functional; conditions: Mus musculus, read-out: ID50 (the source's name)

Sequence of Thymidylate synthase (Mus musculus) (P07607 whole entry, looked up): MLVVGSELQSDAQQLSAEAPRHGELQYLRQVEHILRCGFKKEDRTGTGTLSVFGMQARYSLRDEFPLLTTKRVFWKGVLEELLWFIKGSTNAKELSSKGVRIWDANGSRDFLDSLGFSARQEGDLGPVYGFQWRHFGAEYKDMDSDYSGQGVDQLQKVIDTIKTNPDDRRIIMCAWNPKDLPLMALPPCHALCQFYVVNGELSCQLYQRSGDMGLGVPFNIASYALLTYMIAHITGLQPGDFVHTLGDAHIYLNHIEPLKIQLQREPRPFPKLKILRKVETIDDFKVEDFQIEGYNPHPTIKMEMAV

Row | Potency [1] | IC50 (L1210) [µM] | SMILES
1 | 8.9 | > 137 | C#CCN(Cc1ccc2nc(N)nc(O)c2c1)c1ccc(C(=O)NC(CC(=O)O)C(=O)O)cc1 (stereo not drawn)
2 | 5.2 | > 10 | C#CCN(Cc1ccc2nc(N)nc(O)c2c1)c1ccc(C(=O)NC(C)C(=O)O)cc1 (stereo not drawn)
3 | > 62 | 52 | C#CCN(Cc1ccc2nc(N)nc(O)c2c1)c1ccc(C(=O)NC(CCC(=O)OCC)C(=O)OCC)cc1 (stereo not drawn)

Second part, the compound before the results:

Row | SMILES | Potency [1] | IC50 (L1210) [µM]
4 | C#CCN(Cc1ccc2nc(N)nc(O)c2c1)c1ccc(C(=O)O)cc1 | 84 | > 200
5 | C#CCN(Cc1ccc2nc(N)nc(O)c2c1)c1ccc(C(=O)NCC(=O)O)cc1 | 20.7 | > 100
6 | C#CCN(Cc1ccc2nc(N)nc(O)c2c1)c1ccc(CCCC(=O)O)cc1 | 333 | > 10
7 | C#CCN(Cc1ccc2[nH]c(N)nc(=O)c2c1)c1ccc(C(=O)NC(CCC(=O)O)C(=O)O)cc1 (stereo not drawn) | – | 5
